Laboratory results: patent US6645938B2, “Protection against ischemia and reperfusion injury” (ZymoGenetics, Inc., priority 2000, dated 2003)

How the values were obtained:
[1] = system: isolated perfused rat heart; assay: Isolated perfused rat heart (Langendorff), 20 min global ischemia and 120 min reperfusion after 24 h pretreatment; type: in vivo
Protocol: Compound-D SEQ ID NO:1, at a dose of 2 mg/kg and solubilized as described above, was administered by tail vein injection into rats weighing between about 350-400 g (number of animals (n)=6). Control rats (n=6) were injected in the same manner with an equal volume of 0.9% NaCl. After 24 h, the hearts from both treated and control animals were excised and perfused in a modified Langendorff perfusion apparatus at 37° C. using oxygenated Krebs-Henseleit buffer as the perfusate, as known to one skilled in the art. Coronary perfusion pressure was maintained at […] by regulating coronary flow. All hearts were paced at […] (300 beats per minute, bpm) except during ischemia. A saline-filled balloon was inserted in the left ventricle to measure developed pressure (DP) and end-diastolic pressure (EDP) in mm Hg. After 15 min equilibration, both groups were subjected to 20 min zero-flow global ischemia, and then were reperfused for 120 min.
Left ventricles were isolated and divided into three segments along their short axis, stained with triphenyltetrazolium chloride, and stored in formalin. Infarct size was measured on digitized images and expressed as a percentage of myocardium. Data were expressed as mean plus or minus standard error of the mean (±SEM) and were analyzed using a paired Student's t-Test. Confidence limits were established at 95%. […]

mouse vas deferens = assay: Mouse vas deferens (m.v.d.) contractility assay; conditions: 6000 nM glibenclamide with 1000 nM compound-D
Protocol: Glibenclamide, a KATP channel blocker, blocked the inhibition of contraction of mouse vas deferens induced by compound-D SEQ ID NO:1. With reference to FIG. 8, the effect of administration of 1000 nM compound-D SEQ ID NO:1 alone (open bar) versus 1000 nM compound-D SEQ ID NO:1 with 6000 nM glibenclamide (hatched bar) on contractility of mouse vas deferens (m.v.d.) (n=6) is shown. Glibenclamide restored m.v.d. contractions which compound-D SEQ ID NO:1 had suppressed. […] (n=2).

Compound | effect of naltrexone on the cardioprotective effects of compound-D ([1]; FIG. 7, naltrexone 3 mg/kg combined with compound-D 2.0 mg/kg, 24 h prior to ischemia) | infarct size ([1]; FIG. 7 naltrexone study, pretreated 24 h prior to ischemia, compound-D 2.0 mg/kg, naltrexone 3 mg/kg, control about 27%) | effect on inhibition of contraction induced by compound-D (mouse vas deferens)
O=C1CC[C@@]2(O)[C@H]3Cc4ccc(O)c5c4[C@@]2(CCN3CC2CC2)[C@H]1O5 [naltrexone] | did not block | about 14.5% | –
COc1ccc(Cl)cc1C(=O)NCCc1ccc(S(=O)(=O)NC(=O)NC2CCCCC2)cc1 [Glibenclamide] | – | – | blocked
